In patent US10456376B2, “Use of carbamate compound in order to preventatively treat headaches” (SK BIOPHARMACEUTICALS CO., LTD., priority 2016, dated 2019):

Test system: cortical spreading depression (CSD) in rats
Experiment: KCl-induced cortical spreading depression (CSD) animal model of migraine; cerebral blood flow and DC potential measurement
Assay type: in vivo, Wistar rats
Conditions: for number of DC-potential events: KCl-induced CSD (FIG. 3)
Experimental: All animal experiments were conducted in accordance with the National Institutes of Health (NIH) guidelines for the protection and use of laboratory animals and were approved by the State National Animal Experiment Board of Finland. A total of 48 adult male Wistar rats weighing 250 to 350 g were purchased from Charles River (Germany) and used in this experiment. The animals were raised at ambient temperature (22±1° C.) under an environment in which food and water could be consumed arbitrarily and lighting was controlled (illuminated from 7 am to 8 pm). The animals were divided into the following four groups: • Twelve rats as a negative control group which were intraperitoneally administered 30% PEG400 (5 ml/kg) only, the vehicle of administration, once a day for three weeks • Twelve rats which were intraperitoneally administered the test compound at a dose of 10 mg/kg once a day for three weeks • Twelve rats which were intraperitoneally administered the test compound at a dose of 30 mg/kg once a day for three weeks • Twelve rats as a positive control which were intraperitoneally administered Topiramate at a dose of 80 mg/kg once a day for three weeks
On the last day of the three weeks of administration of the compound and the vehicle (30% PEG 400), the rats were anesthetized with 5% isoflurane (70% N2O and 30% O2 included, dose rate of 300 ml/min) and then were fixed to a stereotactic frame to perform the following surgery. During surgery, the concentration of anesthetic was reduced to 1 to 1.5%, and the rectal temperature was maintained at 37.0±1.0° C. using the homeothermic blanket system.
The skin of the rat head was incised and tilted to both sides, and the right hemisphere of the open skull was drilled using a drill to make three holes, the positions of which are as follows and are indicated by “mm” distance from the bregma; (1) in the occipital cortex, 4.5 at the rear and 2.0 at the lateral; (2) in the parietal cortex, 0.5 at the rear and 2.0 at the lateral; (3) in the frontal cortex, 2 at the front and 2 at the lateral. A laser-Doppler flow probe (Oxyflow, Oxford Optronics, UK) for monitoring the cerebral blood flow (CBF) and an invasive Ag/AgCl electrode for measuring the direct current (DC) potential change were placed on the uninjured dura of the holes drilled in the parietal and frontal cortex and within the cortex, respectively.
The laser-Doppler flow probes were placed in areas with no large pial and dural blood vessels to minimize the interference of the large vessels to the signal. For the measurement of the DC potential difference, a reference electrode was fixed to the neck. The dura on the occipital cortex was carefully removed and care was taken to minimize bleeding. After surgery, the cortical area was restored by washing with saline for 15 minutes. Sphere-shaped (2 mm diameter) cotton wool was wetted with 1 M KCl solution and placed on the pia, and 5 μl of KCl solution was added thereto every 15 minutes to prevent drying. The occurrence of KCl-induced cortical spreading depression (CSD) was measured for 2 hours.
Cerebral blood flow (CBF) and DC potential were continuously monitored starting 5 minutes before KCl treatment. The last drug administration took place 30 minutes before the KCl solution treatment. The parameters analyzed were (1) the number of events of DC potential, the duration of the event, the magnitude of amplitude, and (2) the number of events of cerebral blood flow change and the size of the magnitude of change. […] Statistical analysis was performed using unpaired t-test on StatsDirect statistical software.

SMILES	number of events of increased cerebral blood flow (CBF) (80 mg/kg i.p. once a day for three weeks, positive control, KCl-induced CSD (FIG. 1))	number of DC-potential events (80 mg/kg i.p. once a day for three weeks, positive control)	number of DC-potential events (30 mg/kg i.p. once a day for three weeks, compared to vehicle treated group)	number of events of increased cerebral blood flow (CBF) (30 mg/kg i.p. once a day for three weeks, compared to vehicle treated group, KCl-induced CSD measured for 2 hours (FIG. 1))	degree of cerebral blood flow increase (i.p. once a day for three weeks, compared to vehicle, KCl-induced CSD (FIG. 2))	magnitude of amplitude of the DC-potential event (i.p. once a day for three weeks, compared to vehicle, KCl-induced CSD (FIG. 4))	duration of the DC-potential event (i.p. once a day for three weeks, compared to vehicle, KCl-induced CSD (FIG. 5))
CC1(C)O[C@@H]2[C@@H](CO[C@@]3(COS(N)(=O)=O)OC(C)(C)O[C@@H]23)O1 [Topiramate, reference compound]	reduction effect	effect shown	–	–	–	–	–
NC(=O)O[C@@H](Cn1ncnn1)c1ccccc1Cl [test compound]	–	–	significantly reduced	significantly reduced	no significant effect	no significant effect	no significant effect
